pEC50: −log10 of the molar value.
Biological target: T1, human recombinant OX2 (hOX2) receptor expressed in CHO cells (Homo sapiens, UniProt O43614)
T1 construct: host or cells: CHO cells (hOX2-CHO)
T1 sequence (O43614 1-444): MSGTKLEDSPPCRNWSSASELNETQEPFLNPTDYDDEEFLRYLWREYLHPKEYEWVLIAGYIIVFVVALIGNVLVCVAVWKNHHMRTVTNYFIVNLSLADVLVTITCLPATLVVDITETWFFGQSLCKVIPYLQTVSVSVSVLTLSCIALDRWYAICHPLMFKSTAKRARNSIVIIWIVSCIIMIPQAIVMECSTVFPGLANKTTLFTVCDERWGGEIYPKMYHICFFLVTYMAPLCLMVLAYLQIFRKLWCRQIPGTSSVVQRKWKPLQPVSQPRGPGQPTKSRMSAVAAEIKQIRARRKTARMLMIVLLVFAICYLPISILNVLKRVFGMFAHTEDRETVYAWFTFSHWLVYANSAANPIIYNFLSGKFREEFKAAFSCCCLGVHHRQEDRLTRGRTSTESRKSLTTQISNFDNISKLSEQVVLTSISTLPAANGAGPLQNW
Assay: IP-1 accumulation assay (IP-One HTRF) in hOX2-CHO cells
Assay type: cell-based
Conditions: 60 min at 37° C., 11 points CRC, response as % of maximal OX-A response
Method in brief: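 CHO cells expressing hOX2, 20,000 cells/well in HBSS with 20 mM HEPES pH 7.4, 50 mM LiCl, 0.1% BSA; 11-point compound series, 0.5% DMSO final, 60 min at 37 °C. IP-1 by HTRF (665/615 ratio) after 60 min at room temperature, as % of maximal OX-A response; EC50 by four-parameter logistic fit, mean of ≥2 experiments in duplicate.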

Row | SMILES | pEC50
1 | Cc1cc(C(CNS(=O)(=O)CF)CO[C@H]2CC[C@@H](c3cccc(F)c3)CC2)c(=O)n(C)c1 (stereo partly drawn) [Example 5m, N-[2-(1,5-dimethyl-2-oxo-1,2-dihydropyridin-3-yl)-3-{[(CIS)-4-(3-fluorophenyl)cyclohexyl]oxy}propyl]-1-fluoromethanesulfonamide] | > 7.00
2 | Cc1cc(C(CNS(C)(=O)=O)COC2CCN(c3ncc(F)cn3)CC2)c(=O)n(C)c1 (stereo not shown) [Example 5p, N-[2-(1,5-dimethyl-2-oxo-1,2-dihydropyridin-3-yl)-3-{[1-(5-fluoropyrimidin-2-yl)piperidin-4-yl]oxy}propyl]methanesulfonamide] | < 5.00
3 | Cc1cc(C(CNS(=O)(=O)N(C)C)CO[C@H]2CC[C@@H](c3cccc(F)c3)CC2)c(=O)n(C)c1 (stereo partly drawn) [Example 5q, 3-{1-[(dimethylsulfamoyl)amino]-3-{[(CIS)-4-(3-fluorophenyl)cyclohexyl]oxy}propan-2-yl}-1,5-dimethyl-1,2-dihydropyridin-2-one] | > 7.00
4 | Cc1cc(C(CNS(=O)(=O)N(C)C)CO[C@H]2CC[C@@H](c3cc(F)cc(F)c3)CC2)c(=O)n(C)c1 (stereo partly drawn) [Example 5u, 3-{1-[(dimethylsulfamoyl)amino]-3-{[(CIS)-4-(3,5-difluorophenyl)cyclohexyl]oxy}propan-2-yl}-1,5-dimethyl-1,2-dihydropyridin-2-one] | > 7.00
5 | Cc1cc(C(CNS(C)(=O)=O)CO[C@H]2CC[C@@H](c3cccc(F)c3)CC2)c(=O)n(C2CC2)c1 (stereo partly drawn) [Example 5v, N-[2-(1-cyclopropyl-5-methyl-2-oxo-1,2-dihydropyridin-3-yl)-3-{[(CIS)-4-(3-fluorophenyl)cyclohexyl]oxy}propyl]methanesulfonamide] | > 7.00
6 | Cc1cc(C(CNS(C)(=O)=O)CO[C@H]2CC[C@@H](c3cccc(F)c3)CC2)c(=O)n(CC(F)F)c1 (stereo partly drawn) [Example 5w, N-{2-[1-(2,2-difluoroethyl)-5-methyl-2-oxo-1,2-dihydropyridin-3-yl]-3-{[(CIS)-4-(3-fluorophenyl)cyclohexyl]oxy}propyl}methanesulfonamide] | > 7.00
7 | Cc1cc(C(CNS(C)(=O)=O)CO[C@H]2CC[C@@H](c3cccc(F)c3)CC2)c(=O)n(C(F)F)c1 (stereo partly drawn) [Example 5x, N-{2-[1-(difluoromethyl)-5-methyl-2-oxo-1,2-dihydropyridin-3-yl]-3-{[(CIS)-4-(3-fluorophenyl)cyclohexyl]oxy}propyl}methanesulfonamide] | > 7.00

Further lines, results first:

Row | pEC50 | SMILES
8 | 5.00 to 6.00 | Cc1cc(-c2cccnc2)cn(C(CNS(C)(=O)=O)CO[C@H]2CC[C@@H](c3ccccc3)CC2)c1=O (stereo partly drawn) [Example 6a, N-(2-{5-methyl-6-oxo-1,6-dihydro-[3,3′-bipyridin]-1-yl}-3-{[(CIS)-4-phenylcyclohexyl]oxy}propyl) methanesulfonamide]
9 | 6.00 to 7.00 | Cc1cc(-n2cccn2)cn(C(CNS(C)(=O)=O)CO[C@H]2CC[C@@H](c3ccccc3)CC2)c1=O (stereo partly drawn) [Example 7a, N-{2-[3-methyl-2-oxo-5-(1H-pyrazol-1-yl)-1,2-dihydropyridin-1-yl]-3-{[(CIS)-4-phenylcyclohexyl]oxy}propyl}methanesulfonamide]
10 | < 5.00 | CS(=O)(=O)NCC(Cc1cccc(-c2ccccc2)c1)n1ccccc1=O (stereo not shown) [Example 8a, N-(3-{[1,1′-biphenyl]-3-yl}-2-(2-oxo-1,2-dihydropyridin-1-yl)propyl)methanesulfonamide]

— US20240360081A1, “SULFONAMIDE OREXIN RECEPTOR AGONISTS AND USES THEREOF” (Jazz Pharmaceuticals Ireland Limited, priority 2021, published 2024)
